For five compounds, MIC and IC50 results are on record in ChEMBL document CHEMBL5120918, “Marinoquinolones and Marinobactoic Acid: Antimicrobial and Cytotoxic ortho-Dialkylbenzene-Class Metabolites Produced by a Marine Obligate Gammaproteobacterium of the Genus Marinobacterium” (J Nat Prod, 2022).

Experiment [1] has as its system Candida albicans. Briefly: Antimicrobial activity against Candida albicans NBRC0197 assessed as inhibition of […] growth incubated for 48 hrs by liquid microculture method. Format: functional.
For experiment [2], the system named is Agrobacterium tumefaciens. Put plainly: Antimicrobial activity against Rhizobium radiobacter NBRC14554 assessed as inhibition of bacterial growth incubated for 48 hrs by liquid microculture method. Format: functional.
Experiment [3] concerns Trichophyton rubrum. Briefly: Antimicrobial activity against Trichophyton rubrum NBRC5467 assessed as inhibition of […] growth incubated for 48 hrs by liquid microculture method. It counts as functional.
The test system of experiment [4] is P388. Put plainly: Cytotoxicity against mouse P388 cells assessed as cell growth inhibition measured after 48 hrs by MTT assay. Format: functional, cell-based. The settings on record: P388, 48 h.
Experiment [5] concerns Colletotrichum gloeosporioides. Put plainly: Antimicrobial activity against Glomerella cingulata NBRC5907 assessed as inhibition of […] growth incubated for 48 hrs by liquid microculture method. Format: functional.
The subject of experiment [6] is Kocuria rhizophila. Briefly: Antimicrobial activity against Kocuria rhizophila ATCC9341 assessed as inhibition of bacterial growth incubated for 48 hrs by liquid microculture method. Format: functional.
Experiment [7] has as its system Staphylococcus aureus. Put plainly: Antimicrobial activity against Staphylococcus aureus FDA209P JC-1 assessed as inhibition of bacterial growth incubated for 48 hrs by liquid microculture method. Format: functional.
Experiment [8] relates to Escherichia coli. Put plainly: Antimicrobial activity against Escherichia coli NIHJ JC-2 assessed as inhibition of bacterial growth incubated for 48 hrs by liquid microculture method. It counts as functional.

Each structure is given as a SMILES string. In brackets after ≈: the same amount, converted by molar mass.

Usually MIC stands for the least concentration at which growth counts as inhibited. What is called IC50 is the point on the concentration scale where inhibition reaches its midpoint. As for `C/C=C/c1ccccc1C/C=C/C=C\Cc1cc(=O)c2ccccc2[nH]1`, the MIC was above 100 µg/mL in experiment [1]; 50 µg/mL (≈ 146 µM) in experiment [2]; 13 µg/mL (≈ 38.1 µM) in experiment [3]; 25 µg/mL (≈ 73.2 µM) in experiment [5]; 13 µg/mL (≈ 38.1 µM) in experiment [6]; 25 µg/mL (≈ 73.2 µM) in experiment [7]. In addition, the minimal inhibitory concentration (MIC) in experiment [8] is above 100 µg/mL. Moreover, in experiment [4], the IC50 is 10 µM.
For `C/C=C/c1ccccc1C/C=C/C=C\CC(=O)O`, the MIC was above 100 µg/mL in experiment [1]; 25 µg/mL (≈ 103 µM) in experiment [2]; 13 µg/mL (≈ 53.6 µM) in experiment [3]; 6.3 µg/mL (≈ 26 µM) in experiment [5]; 13 µg/mL (≈ 53.6 µM) in experiment [6]; 6.3 µg/mL (≈ 26 µM) in experiment [7]. Further, the minimal inhibitory concentration (MIC) in experiment [8] is above 100 µg/mL. Also, the IC50 in experiment [4] worked out at 1.2 µM.
For `C/C=C/c1ccccc1/C=C/C=C/C(O)Cc1cc(=O)c2ccccc2[nH]1` (racemic), the minimal inhibitory concentration (MIC) is above 100 µg/mL in experiment [1]; 50 µg/mL (≈ 140 µM) in experiment [2]; 6.3 µg/mL (≈ 17.6 µM) in experiment [3]; 13 µg/mL (≈ 36.4 µM) in experiment [5]; 6.3 µg/mL (≈ 17.6 µM) in experiment [6]; 13 µg/mL (≈ 36.4 µM) in experiment [7]. Besides, the minimal inhibitory concentration (MIC) in experiment [8] was above 100 µg/mL. Besides, in experiment [4], the IC50 was determined as 7.3 µM.
For `C[C@@H]1[C@H](O)[C@@H](C)/C=C/C=C/C=C/C=C/C=C/C=C/C=C/[C@H](O[C@@H]2O[C@H](C)[C@@H](O)[C@H](N)[C@@H]2O)C[C@@H]2O[C@](O)(C[C@@H](O)C[C@@H](O)[C@H](O)CC[C@@H](O)C[C@@H](O)CC(=O)O[C@H]1C)C[C@H](O)[C@H]2C(=O)O` [AMPHOTERICIN B], the results for the MIC in experiment [1], in experiment [3] and in experiment [5] were 0.78 µg/mL (≈ 0.844 µM), 0.78 µg/mL (≈ 0.844 µM) and 1.3 µg/mL (≈ 1.41 µM), respectively.
`COc1cccc2c1C(=O)c1c(O)c3c(c(O)c1C2=O)C[C@@](O)(C(=O)CO)C[C@@H]3O[C@H]1C[C@H](N)[C@H](O)[C@H](C)O1` [DOXORUBICIN]: the half-inhibitory concentration (IC50) in experiment [4] is 0.08 µM.
